Reference: ChEMBL document CHEMBL4354827, “Discovery of Novel, Potent, Brain-Permeable, and Orally Efficacious Positive Allosteric Modulator of α7 Nicotinic Acetylcholine Receptor [4-(5-(4-Chlorophenyl)-4-methyl-2-propionylthiophen-3-yl)benzenesulfonamide]: Structure-Activity Relationship and Preclinical Characterization” (J Med Chem, 2020)

Columns and labels:
[1] = Drug concentration in Swiss mouse plasma at 40 mg/kg, sc after 30 mins by LC-MS analysis; type: ADME, organism-based
[2] = Ratio of drug level in Swiss mouse brain to plasma at 40 mg/kg, sc after 30 mins by LC-MS analysis; type: ADME, organism-based; conditions: brain and plasma, read-out: BPR
[3] = Drug concentration in Swiss mouse brain at 40 mg/kg, sc after 30 mins by LC-MS analysis; type: ADME, organism-based; conditions: read-out: Drug uptake
[4] = Drug level in Sprague-Dawley rat cerebrospinal fluid at 3 mg/kg, po; type: ADME, organism-based; conditions: in vivo
[5] = Ratio of drug level in Sprague-Dawley rat brain to plasma at 3 mg/kg, po after 1 hr; type: ADME, organism-based; conditions: brain and plasma, read-out: BPR
[6] = Drug concentration in Sprague-Dawley rat brain at 3 mg/kg, po after 1 hr; type: ADME, organism-based; conditions: read-out: Drug uptake
[7] = Drug concentration in Sprague-Dawley rat plasma at 3 mg/kg, po after 1 hr; type: ADME, organism-based
[8] = Ratio of drug level in rat brain to plasma at 10 mg/kg, ip by HPLC-LC/MS analysis; type: ADME, organism-based; conditions: brain and plasma, read-out: BPR
[9] = Drug level in rat plasma at 10 mg/kg, ip after 120 mins by HPLC-LC/MS analysis; type: ADME, organism-based
Rattus norvegicus [10] = experiment: Memory enhancement effect in time-delay induced Wistar rat model of amnesia assessed as exploration time for object2 at 3 mg/kg, po administered as single dose after acquisition trial by novel object recognition test (reference value: 21.07 sec); type: functional
Rattus norvegicus [11] = experiment: Memory enhancement effect in time-delay induced Wistar rat model of amnesia assessed as exploration time for object1 in acquisition trial at 3 mg/kg, po administered as single dose and measured on day 8 by novel object recognition test (reference value: 13.95 sec); type: functional
Rattus norvegicus [12] = experiment: Memory enhancement effect in time-delay induced Wistar rat model of amnesia assessed as exploration time for novel object at 3 mg/kg, po administered as single dose after acquisition trial by novel object recognition test (reference value: 12.81 sec); type: functional
Rattus norvegicus [13] = experiment: Memory enhancement effect in time-delay induced Wistar rat model of amnesia assessed as exploration time for object2 in acquisition trial at 3 mg/kg, po administered as single dose and measured on day 8 by novel object recognition test (reference value: 16.33 sec); type: functional
[14] = Drug concentration in Wistar rat plasma at 3 mg/kg, po after 2 hrs by LC-MS/MS analysis; type: ADME, organism-based
Rattus norvegicus [15] = experiment: Memory enhancement effect in time-delay induced Wistar rat model of amnesia assessed as exploration time for familiar object at 3 mg/kg, po administered as single dose after acquisition trial by novel object recognition test (reference value: 10.6 sec); type: functional
Rattus norvegicus [16] = experiment: Memory enhancement effect in scopolamine-induced Wistar rat model of amnesia assessed as exploration time for familiar object in retention trial at 0.05 mg/kg, po for 7 days and measured on day 8 by novel object recognition test (reference value: 8.59 sec); type: functional
Rattus norvegicus [17] = experiment: Memory enhancement effect in scopolamine-induced Wistar rat model of amnesia assessed as exploration time for object2 in acquisition trial at 0.15 mg/kg, po administered as single dose and measured on day 8 by novel object recognition test (reference value: 15.63 sec); type: functional
[18] = Ratio of drug level in brain to plasma in Wistar rat at 3 mg/kg, po after 2 hrs by LC-MS/MS analysis; type: ADME, organism-based; conditions: brain and plasma, read-out: BPR
Rattus norvegicus [19] = experiment: Memory enhancement effect in scopolamine-induced Wistar rat model of amnesia assessed as exploration time for familiar object in retention trial at 0.15 mg/kg, po administered as single dose and measured on day 9 by novel object recognition test (reference value: 8.59 sec); type: functional
Rattus norvegicus [20] = experiment: Memory enhancement effect in scopolamine-induced Wistar rat model of amnesia assessed as exploration time for object2 in acquisition trial at 0.05 mg/kg, po for 7 days and measured on day 8 by novel object recognition test (reference value: 15.63 sec); type: functional
Rattus norvegicus [21] = experiment: Memory enhancement effect in scopolamine-induced Wistar rat model of amnesia assessed as increase in exploration time for novel object in retention trial at 0.15 mg/kg, po administered as single dose and measured on day 9 by novel object recognition test (reference value: 12.09 sec); type: functional
Rattus norvegicus [22] = experiment: Memory enhancement effect in scopolamine-induced Wistar rat model of amnesia assessed as exploration time for novel object in retention trial at 0.05 mg/kg, po for 7 days and measured on day 8 by novel object recognition test (reference value: 12.09 sec); type: functional
Rattus norvegicus [23] = experiment: Memory enhancement effect in time-delay induced Wistar rat model of amnesia assessed as exploration time for object1 in acquisition trial at 0.05 mg/kg, po for 7 days and measured on day 8 by novel object recognition test (reference value: 13.73 sec); type: functional
Rattus norvegicus [24] = experiment: Memory enhancement effect in time-delay induced Wistar rat model of amnesia assessed as exploration time for familiar object in retention trial at 3 mg/kg, po administered as single dose and measured on day 9 by novel object recognition test (reference value: 13.05 sec); type: functional
Rattus norvegicus [25] = experiment: Memory enhancement effect in time-delay induced Wistar rat model of amnesia assessed as exploration time for object2 in acquisition trial at 0.05 mg/kg, po for 7 days and measured on day 8 by novel object recognition test (reference value: 11.76 sec); type: functional
[26] = Drug level in Wistar rat brain at 3 mg/kg, po after 2 hrs by LC-MS/MS analysis; type: ADME, organism-based; conditions: read-out: Drug uptake
Rattus norvegicus [27] = experiment: Memory enhancement effect in time-delay induced Wistar rat model of amnesia assessed as increase in exploration time for novel object in retention trial at 3 mg/kg, po administered as single dose and measured on day 9 by novel object recognition test (reference value: 12.06 sec); type: functional
Rattus norvegicus [28] = experiment: Memory enhancement effect in time-delay induced Wistar rat model of amnesia assessed as exploration time for novel object in retention trial at 0.05 mg/kg, po for 7 days and measured on day 8 by novel object recognition test (reference value: 15.37 sec); type: functional
Rattus norvegicus [29] = experiment: Improvement in social recognition time delay-induced Sprague-Dawley rat model of amnesia assessed as increase in reduction in social investigation time at 0.15 mg/kg, po for 7 days and measured on day 9 (reference value: -0.5%); type: functional; design: scale not given: the % may be the effect or the level left
Rattus norvegicus [30] = experiment: Improvement in social recognition scopolamine-induced Sprague-Dawley rat model of amnesia assessed as increase in reduction in social investigation time at 0.15 mg/kg, po for 7 days measured after 24 hrs (Rvb =6.59%); type: functional; design: scale not given: the % may be the effect or the level left
Rattus norvegicus [31] = experiment: Memory enhancement effect in scopolamine-induced Wistar rat model of amnesia assessed as exploration time for object1 in acquisition trial at 0.15 mg/kg, po administered as single dose and measured on day 8 by novel object recognition test (reference value: 16.11 sec); type: functional
Rattus norvegicus [32] = experiment: Memory enhancement effect in time-delay induced Wistar rat model of amnesia assessed as exploration time for familiar object in retention trial at 0.05 mg/kg, po for 7 days and measured on day 8 by novel object recognition test (reference value: 10.20 sec); type: functional
Rattus norvegicus [33] = experiment: Memory enhancement effect in scopolamine-induced Wistar rat model of amnesia assessed as exploration time for object1 in acquisition trial at 0.05 mg/kg, po for 7 days and measured on day 8 by novel object recognition test (reference value: 16.11 sec); type: functional
Rattus norvegicus [34] = experiment: Memory enhancement effect in time-delay induced Wistar rat model of amnesia assessed as exploration time for object1 at 3 mg/kg, po administered as single dose after acquisition trial by novel object recognition test (reference value: 19.09 sec); type: functional
Rattus norvegicus [35] = experiment: Improvement in social recognition time delay-induced Sprague-Dawley rat model of amnesia assessed as increase in reduction in social investigation time at 3 mg/kg, po administered as single dose prior to 1 hr training and measured after 30 mins (reference value: 0.39%); type: functional; design: scale not given: the % may be the effect or the level left
Rattus norvegicus [36] = experiment: Improvement in social recognition scopolamine-induced Sprague-Dawley rat model of amnesia assessed as increase in reduction in social investigation time at 3 mg/kg, po administered as single dose prior to 1 hr training and measured after 30 mins (reference value: 9.81%); type: functional; design: scale not given: the % may be the effect or the level left
[37] = Drug level in DBA/2 mouse brain at 0.3 mg/kg, iv after 90 mins; type: ADME, organism-based; conditions: read-out: Drug uptake
[38] = Drug level in DBA/2 mouse brain at 0.3 mg/kg, iv after 10 mins; type: ADME, organism-based; conditions: read-out: Drug uptake
[39] = Drug level in NSA mouse brain at 0.3 mg/kg, po after 120 to 150 mins; type: ADME, organism-based; conditions: in vivo, read-out: Drug uptake

OCc1sc(Nc2ccc(F)c(C(F)(F)F)c2)nc1-c1ccncc1
concentration at 0.5 h [1]: 5920 ng/mL | Kp at 0.5 h [2]: 0.3 | concentration at 0.5 h [3]: 1910 ng/g

COc1ccc(Cl)cc1C(=O)N[C@@H]1[C@@H](c2ccc(S(N)(=O)=O)cc2)C1(C)C
Drug uptake [4]: 12.1 ng/mL

COc1cc(OC)c(NC(=O)Nc2cc(C)on2)cc1Cl
Kp at 1 h [5]: 1.18 | concentration at 1 h [6]: 50.8 ng/g | concentration at 1 h [7]: 43.1 ng/mL

O=C(Nc1cc(Cl)ccc1O)Nc1cc(C(F)(F)F)ccc1Cl
Kp [8]: 0.5 | concentration at 2 h [9]: 172 ng/mL

CCC(=O)c1cc(-c2ccc(Cl)cc2)n(-c2ccc(S(N)(=O)=O)cc2)c1C
Time (Rattus norvegicus [10]): 17.17 s | Time (Rattus norvegicus [11]): 25.62 s | Time (Rattus norvegicus [12]): 14.61 s | Time (Rattus norvegicus [13]): 20.37 s | concentration at 2 h [14]: 700 to 1050 nM | Time (Rattus norvegicus [15]): 8.05 s | Time (Rattus norvegicus [16]): 5.7 s | Time (Rattus norvegicus [17]): 14.75 s | Kp at 2 h [18]: 0.1 to 0.2 | Time (Rattus norvegicus [19]): 5.7 s | Time (Rattus norvegicus [20]): 14.75 s | Time (Rattus norvegicus [21]): 16.33 s | Time (Rattus norvegicus [22]): 16.33 s | Time (Rattus norvegicus [23]): 11.58 s | Time (Rattus norvegicus [24]): 11.47 s | Time (Rattus norvegicus [25]): 12.59 s | concentration at 2 h [26]: 110 to 140 nM | Time (Rattus norvegicus [27]): 28.31 s | Time (Rattus norvegicus [28]): 14.16 s | Activity (Rattus norvegicus [29]): 65.75% | Activity (Rattus norvegicus [30]): 31.8% | Time (Rattus norvegicus [31]): 14.7 s | Time (Rattus norvegicus [32]): 10.19 s | Time (Rattus norvegicus [33]): 14.7 s | Time (Rattus norvegicus [34]): 12.7 s | Activity (Rattus norvegicus [35]): 35.28% | Activity (Rattus norvegicus [36]): 50.67%

Cc1cc(/C(=C/Nc2ccc(Cl)cc2)C(=O)Nc2ccc(Cl)cc2)on1 [AVL-3288]
concentration at 1.5 h [37]: 300 nM | concentration at 10 min [38]: 1000 nM | concentration [39]: 150 to 300 nM
